Measurements: ChEMBL document CHEMBL1121888, “(alpha S)-erythro-alpha-methylepinephrine: preparation and stereoselective binding to adrenergic receptors in rat forebrain” (J Med Chem, 1981)

Each compound was assayed against T1, Adrenergic receptor alpha-1 (Rattus norvegicus, UniProt P15823+P23944+P43140) (assay: Compound was evaluated for inhibition of [3H]prazosin binding to Alpha-1 adrenergic receptor in rat forebrain homogenate.).
T1 sequence (P15823 whole entry): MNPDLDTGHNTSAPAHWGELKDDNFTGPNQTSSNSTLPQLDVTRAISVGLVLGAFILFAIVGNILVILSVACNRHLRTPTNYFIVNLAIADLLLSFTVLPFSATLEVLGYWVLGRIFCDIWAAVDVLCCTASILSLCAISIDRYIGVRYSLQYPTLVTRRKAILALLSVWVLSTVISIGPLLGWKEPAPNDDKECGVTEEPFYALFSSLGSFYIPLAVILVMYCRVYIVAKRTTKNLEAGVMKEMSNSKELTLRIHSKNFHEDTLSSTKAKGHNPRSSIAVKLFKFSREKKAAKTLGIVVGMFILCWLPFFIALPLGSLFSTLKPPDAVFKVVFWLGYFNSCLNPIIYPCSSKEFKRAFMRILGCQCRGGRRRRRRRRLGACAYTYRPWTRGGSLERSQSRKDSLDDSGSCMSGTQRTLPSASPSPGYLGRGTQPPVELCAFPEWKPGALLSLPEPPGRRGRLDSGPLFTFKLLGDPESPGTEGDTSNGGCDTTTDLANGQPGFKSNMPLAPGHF
T1 sequence (P23944 whole entry): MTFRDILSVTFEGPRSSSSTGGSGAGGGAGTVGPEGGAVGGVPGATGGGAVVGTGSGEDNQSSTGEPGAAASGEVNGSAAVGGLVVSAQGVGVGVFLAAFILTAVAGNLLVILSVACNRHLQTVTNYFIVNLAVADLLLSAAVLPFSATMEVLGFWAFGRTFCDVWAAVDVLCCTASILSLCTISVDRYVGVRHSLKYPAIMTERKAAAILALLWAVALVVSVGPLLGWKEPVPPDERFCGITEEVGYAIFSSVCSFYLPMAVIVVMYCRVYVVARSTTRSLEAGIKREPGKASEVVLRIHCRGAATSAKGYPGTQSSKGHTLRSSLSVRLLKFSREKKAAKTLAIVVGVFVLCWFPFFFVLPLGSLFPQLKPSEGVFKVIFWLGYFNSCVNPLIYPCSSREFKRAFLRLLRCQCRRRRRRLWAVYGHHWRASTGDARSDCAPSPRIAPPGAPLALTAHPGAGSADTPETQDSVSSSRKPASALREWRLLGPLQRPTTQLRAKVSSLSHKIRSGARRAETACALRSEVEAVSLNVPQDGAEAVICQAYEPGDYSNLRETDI
T1 sequence (P43140 whole entry): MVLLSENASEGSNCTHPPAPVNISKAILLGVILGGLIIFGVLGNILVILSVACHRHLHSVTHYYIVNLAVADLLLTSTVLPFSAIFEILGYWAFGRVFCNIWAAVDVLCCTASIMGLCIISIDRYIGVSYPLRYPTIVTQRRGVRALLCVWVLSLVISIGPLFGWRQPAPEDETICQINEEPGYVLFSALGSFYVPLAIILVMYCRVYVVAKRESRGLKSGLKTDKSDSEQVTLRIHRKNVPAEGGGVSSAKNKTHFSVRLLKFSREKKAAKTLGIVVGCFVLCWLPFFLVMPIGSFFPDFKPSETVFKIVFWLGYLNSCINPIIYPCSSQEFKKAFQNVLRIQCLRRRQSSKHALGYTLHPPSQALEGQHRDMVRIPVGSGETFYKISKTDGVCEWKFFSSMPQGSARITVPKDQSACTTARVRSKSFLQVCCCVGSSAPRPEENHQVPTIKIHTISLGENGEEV
Assay type: tissue-based, Brain

Row | Compound | Ki
1 | CN[C@H](C)[C@@H](O)c1ccc(O)c(O)c1 | 11 µM
2 | CN[C@@H](C)[C@H](O)c1ccc(O)c(O)c1 | 146 µM
3 | C[C@H](N)[C@H](O)c1ccc(O)c(O)c1 (stereo in doubt; 1) [LEVONORDEFRIN] | 7.3 µM
4 | C[C@H](N)[C@H](O)c1ccc(O)c(O)c1 (stereo in doubt; form 1) [LEVONORDEFRIN] | 3.6 µM
5 | C[C@H](N)[C@H](O)c1ccc(O)c(O)c1 (stereo in doubt; form 2) [LEVONORDEFRIN] | 2315 µM
6 | CNC(C)C(O)c1ccc(O)c(O)c1 (stereo unspecified) [DIOXIFEDRINE] | 28 µM
